Reference: publication PMC8318231, “Rate-of-Kill (RoK) assays to triage large compound sets for Chagas disease drug discovery: Application to GSK Chagas Box” (PLoS Neglected Tropical Diseases, 2021)
Read-outs that look alike come from different tables or passages of the source.

Legend:
[1] = tested on: T. cruzi Tulahuen trypomastigotes; assay: T. cruzi trypomastigote assay (Cell Titer-Glo viability, ATP luminescence); type: cell-based, Trypanosoma cruzi; details: for IC50: Trypanosoma cruzi, TULAHUEN; for Trypomastigotes pIC50 48 hours: 48 hours incubation; for Trypomastigotes pIC50 48 hours / Trypomastigotes pIC50 72 hours: pIC50 = -log10 IC50 in molar units; for Trypomastigotes pIC50 72 hours: 72 hours incubation
Summary of the method: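 Tulahuen trypomastigotes from infected LLC-MK2 culture supernatants (days 5–8) plated at 5 × 10^4 per well in DMEM/2% FBS with compound at 5 μM single-shot final or in dose response. Viability by CellTiter-Glo ATP luminescence after 10 min at room temperature, normalised to no-cell (100%) and DMSO (0%) controls.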

[2] = tested on: T. cruzi intracellular amastigotes in H9c2 cells; assay: Rate-of-Kill (RoK) high-content imaging assay, amastigotes per cell (AM/CELL) and curve descriptors; type: cell-based, Trypanosoma cruzi; parameters: key to ME_24h / ME_48h / ME_72h: % reduction in parasite burden (cidal response); t50pct_MCC50 / t50pct_Cmax: unit not given here; details: for ME_24h: 24h; for ME_48h: 48h; for ME_72h: 72h; for t50%_Cmax / tlag_Cmax / t50pct_Cmax: at Cmax; for ME_24h (%): maximum effect at 24 h; for ME_24h (%) / ME_48h (%) / ME_72h (%): RoK assay; for ME_48h (%): maximum effect at 48 h; for ME_72h (%): maximum effect at 72 h
Procedure: For this high-content intracellular imaging assay, H9c2 cells were seeded in 225 cm^2 T- FLASK in DMEM with 10% FBS for 4 h to allow attachment. T. cruzi trypomastigotes, collected at days 5 to 8 after infection from LLC-MK2 parasite infected cultures, were allowed to swim out for 4 h at 37°C from a centrifuged pellet (1,600 x g / 10 min). Trypomastigotes were then collected and counted in a CASY Cell Counter using the 60 μm capillary. Trypomastigotes, in supplemented DMEM, were added to H9c2 cultures in a multiplicity of infection (MOI) of 8 and incubated for 18 h. Cells were washed once with PBS before incubation of the infected H9c2 monolayer with trypsin (Life-Technologies) to detach cells from the flask. Cells were counted in a CASY Cell Counter, using the 150 μm capillary, and their density set at 5 x 10^4 cells/mL in supplemented DMEM. Infected H9c2 were dispensed into 384-well plates at 50 μL per well using a Multidrop Combi dispenser. Control wells used to determine a 100% parasitic growth (full 6th column of each plate) were left untreated, whereas not infected cells were added in the control wells used as 0% parasite growth (or 100% parasite growth inhibition; full 18th column of each plate). The four plates corresponding to each RoK assay were predispensed for the same mother plate. […] Cultures were then fixed and stained with 50 μL per well of a PBS solution containing 4% formaldehyde and 2 μM DRAQ5 DNA dye (BioStatus, UK). Then plates were read in a PerkinElmer Opera Phenix using a 20x objective, 3 fields per well. DRAQ5 signal was detected using 640 nm excitation laser and a 690/50 nm emission detection filter. Automated image analysis was performed with a script developed on Acapella High Content Imaging and Analysis Software (PerkinElmer). Two outputs were provided for each sample well: (1) number of host cells nuclei to determine drug-related cytotoxicity (aka H9c2) and (2) number of amastigotes per cell as infection level measurement (aka AM/CELL). Each output is plotted as a time course for each compound at every concentration. This assay was adapted from Alonso-Padilla et al. and Peña et al..
To identify and classify the different compounds, the number of amastigotes per cell (AM/CELL) raw data obtained in rate of kill assay are normalised using the average of C1 (infected cells) at time 4 hours as 0% effect and the average of C2 (non-infected cells) for each time as 100% effect, according to the following Eq 1: %CIDALRESPONSE=100*[Avg_C14h-RawData]/[Avg_C14h-Avg_C2] (1)
• ME (Maximum Effect) is the maximum percentage of parasite burden reduction reached by any compound concentration. Compounds that decrease the initial parasite load will show a positive value of ME, whereas compounds that allow the progression of infection will render a negative ME value. […] It is calculated for the MCC50 (t50%_MCC50) and for the maximum concentration (t50%_Cmax). […] The value of this parameter is not either interpolated or extrapolated, and it refers to the first experimental time-course point at which a 50% of effect is reached or exceeded. • tlag defines the time elapsed for one particular concentration to reduce parasite burden between two consecutive points at any moment of the time course. It is calculated for the MCC50 (tlag_MCC50) and for the maximum concentration (tlag_Cmax). The value of this parameter is not either interpolated or extrapolated, and it refers to the first experimental time-course point of a positive slope in the normalised plot (i.e. %Cidal_Response). • Cmin_Tox (Minimal CytoToxic Concentration) is the lowest compound concentration that is reducing the number of host mammalian cells below 50% of initial cell density. Cytotoxic compounds may mislead a bona fide antiparasitic action.

[3] = 72 hours, plotted values, censored values given without sign
[4] = trypomastigote assay, 48 h, figure 1A
[5] = trypomastigote assay, 72 h, figure 1A
[6] = trypomastigote assay, 72 h, figure 1B
[7] = maximum percentage of parasite burden reduction reached by any concentration, 24 hours

Compound: CC1CS(=O)(=O)CCN1/N=C/c1ccc([N+](=O)[O-])o1 (stereo not drawn) [Nifurtimox, nifurtimox, reference compound]
- activity in trypomastigotes assay (in words) ([1]; 48 and 72 hours): active
- IC50 ([1]; 48 h, read-out: Trypomastigotes pIC50 48 hours (converted)): 1260 nM
- IC50 ([1]; 72 h, read-out: Trypomastigotes pIC50 72 hours (converted)): 1260 nM
- IC50 ([1]; 72 hours, plotted values, censored values given without sign, read-out: 72 pIC50 (trypomastigotes, raw data of Fig 1D) (converted)): 1260 nM
- IC50 ([1]; trypomastigote assay, 48 h, figure 1A, read-out: 48 pIC50 (converted)): 1260 nM
- IC50 ([1]; trypomastigote assay, 72 h, figure 1A, read-out: 72 pIC50 (converted)): 1260 nM
- pIC50 versus trypomastigotes ([1]; invariable at the two incubation times tested): 5.9
- ME (maximum effect) in RoK assay (in words) [2]: higher ME values close to 100%
- tlag (in words) [2]: short t-lag values
- ME_24h ([2]; figure 5): 79.7791
- ME_48h ([2]; figure 5): 100.284
- ME_72h ([2]; figure 5): 96.6694
- t50pct_Cmax (t50%_Cmax) ([2]; Fig 2C, average, time to reduce 50% of initial parasite load at maximum concentration): 24 h
- MCC50 ([2]; RoK curve descriptor): 7.5 µM
- MCCE ([2]; RoK curve descriptor): 1.9 µM
- AM/CELL NORM ([2]; Time 4, figure 4 A): -6.175
- AM/CELL NORM ([2]; Time 24, figure 4 A): 78.541
- AM/CELL NORM ([2]; Time 48, figure 4 A): 98.3875
- AM/CELL NORM ([2]; Time 72, figure 4 A): 101.766
- Emax ([2]; Trypanosoma cruzi, H9c2, maximum percentage of parasite burden reduction reached by any concentration, 24 hours, read-out: ME 24h (maximum effect at 24 hours, intracellular amastigotes)): 81.7%
- t50%_Cmax [2]: 24.0 h
- tlag_Cmax [2]: 4.0 h
- t50pct_Cmax ([2]; figure 5): 25.3333
- tlag_Cmax ([2]; figure 5): 4
- t50%_MCC50 ([2]; at MCC50): 48.2 h
- tlag_MCC50 ([2]; at MCC50): 8.9 h
- t50pct_MCC50 ([2]; at MCC50, figure 5): 48.2222
- tlag_MCC50 ([2]; at MCC50, figure 5): 8.889
- MCCE ([2]; figure 5): 1.852
- MCC50 ([2]; figure 5, in µM): 7.545
- ME_24h (%) [2]: 79.8%
- ME_48h (%) [2]: 100.3%
- ME_72h (%) [2]: 96.7%

Compound: O=C(O)/C=C\C(=O)O.O=C(c1ccc(OCCCc2cnc[nH]2)cc1)C1CC1 [TCMDC-143632]
- Trypomastigotes pIC50 48 hours [1]: < 4.3
- Trypomastigotes pIC50 72 hours [1]: < 4.3
- 72 pIC50 (trypomastigotes, raw data of Fig 1D) [1, 3]: < 4.3
- 48 pIC50 [1, 4]: < 4.3
- 72 pIC50 [1, 5]: < 4.3
- 72 pIC50 [1, 6]: < 4.3
- ME_24h ([2]; figure 5): -9.2427
- ME_48h ([2]; figure 5): 8.208
- ME_72h ([2]; figure 5): 46.1088
- MCCE ([2]; RoK curve descriptor): 5.6 µM
- AM/CELL NORM ([2]; Time 4, sheet figure 4 A): 10.5519
- AM/CELL NORM ([2]; Time 24, sheet figure 4 A): -53.2211
- AM/CELL NORM ([2]; Time 48, sheet figure 4 A): -4.213
- AM/CELL NORM ([2]; Time 72, sheet figure 4 A): 38.8877
- tlag_Cmax [2]: 24.0 h
- t50pct_Cmax ([2]; figure 5): 72
- tlag_Cmax ([2]; figure 5): 24
- t50pct_MCC50 ([2]; at MCC50, figure 5): 72
- tlag_MCC50 ([2]; at MCC50, figure 5): 72
- MCC50 ([2]; figure 5): 50 µM
- MCCE ([2]; figure 5): 5.556
- ME_24h (%) [2]: -9.2%
- ME_48h (%) [2]: 8.2%
- ME_72h (%) [2]: 46.1%
- ME 24h (maximum effect at 24 hours, intracellular amastigotes) [2, 7]: -9.2427%

Compound: Cc1cc(N(C)C)nc(Nc2ccccc2C)n1 [TCMDC-143109]
- Trypomastigotes pIC50 48 hours [1]: 5.7
- Trypomastigotes pIC50 72 hours [1]: 5.6
- ME_24h ([2]; figure 5): 47.5747
- ME_48h ([2]; figure 5): 78.0835
- ME_72h ([2]; figure 5): 82.1728
- MCC50 ([2]; RoK curve descriptor): 5.6 µM
- MCCE ([2]; RoK curve descriptor): 1.9 µM
- AM/CELL NORM ([2]; Time 4, sheet figure 4 A): 2.321
- AM/CELL NORM ([2]; Time 24, sheet figure 4 A): 36.6087
- AM/CELL NORM ([2]; Time 48, sheet figure 4 A): 78.0835
- AM/CELL NORM ([2]; Time 72, sheet figure 4 A): 76.3621
- t50%_Cmax [2]: 48.0 h
- tlag_Cmax [2]: 4.0 h
- t50pct_Cmax ([2]; figure 5): 48
- tlag_Cmax ([2]; figure 5): 4
- t50%_MCC50 ([2]; at MCC50): 48.0 h
- tlag_MCC50 ([2]; at MCC50): 4.0 h
- t50pct_MCC50 ([2]; at MCC50, figure 5): 48
- tlag_MCC50 ([2]; at MCC50, figure 5): 4
- MCCE ([2]; figure 5): 1.852
- MCC50 ([2]; figure 5, in µM): 5.556
- ME_24h (%) [2]: 47.6%
- ME_48h (%) [2]: 78.1%
- ME_72h (%) [2]: 82.2%
- ME 24h (maximum effect at 24 hours, intracellular amastigotes) [2, 7]: 47.5747%

Compound: O=C(N1CCc2ccccc2CC1)C1(C(=O)N2CCC(n3c(=O)[nH]c4ncccc43)CC2)CC1.O=C(O)C(F)(F)F [TCMDC-143381]
- Trypomastigotes pIC50 48 hours [1]: < 4.3
- Trypomastigotes pIC50 72 hours [1]: < 4.3
- 72 pIC50 (trypomastigotes, raw data of Fig 1D) [1, 3]: < 4.3
- 48 pIC50 [1, 4]: < 4.3
- 72 pIC50 [1, 5]: < 4.3
- 72 pIC50 [1, 6]: < 4.3
- ME_24h ([2]; figure 5): -241.612
- ME_48h ([2]; figure 5): -106.513
- ME_72h ([2]; figure 5): 38.7809
- MCCE ([2]; RoK curve descriptor): 1.9 µM
- AM/CELL NORM ([2]; Time 4, sheet figure 4 A): 8.613
- AM/CELL NORM ([2]; Time 24, sheet figure 4 A): -274.305
- AM/CELL NORM ([2]; Time 48, sheet figure 4 A): -155.332
- AM/CELL NORM ([2]; Time 72, sheet figure 4 A): 34.067
- tlag_Cmax [2]: 24.0 h
- t50pct_Cmax ([2]; figure 5): 72
- tlag_Cmax ([2]; figure 5): 24
- t50pct_MCC50 ([2]; at MCC50, figure 5): 72
- tlag_MCC50 ([2]; at MCC50, figure 5): 72
- MCC50 ([2]; figure 5): 50 µM
- MCCE ([2]; figure 5): 1.852
- ME_24h (%) [2]: -241.6%
- ME_48h (%) [2]: -106.5%
- ME_72h (%) [2]: 38.8%
- ME 24h (maximum effect at 24 hours, intracellular amastigotes) [2, 7]: -241.612%
